Experimental data: US20210023523A1, “PARALLEL ORGANIC SYNTHESIS ON PATTERNED PAPER USING A SOLVENT-REPELLING MATERIAL” (The Governors of the University of Alberta, priority 2013, published 2021)

What was measured:
[1] = test system: MCF-7 breast cancer cells; assay: Culture of MCF-7 cells on peptide-modified array with or without paclitaxel (Taxol); format: cell-based; settings: cells cultured on a peptide that induced morphological changes; Taxol for the last 4 days of seven; without drug: spread cells forming aggregate
Source text: FIG. 19 illustrates changes such as drug-resistance and morphology observed when a peptide-modified array supported culture of MCF-7 breast cancer cells for seven days and was exposed to the anti-cancer drug paclitaxel (Taxol) for the last 4 days. FIG. 19a presents confocal images of calcein-stained cells after culture in media without taxol for four peptides (including two controls) and FIG. 19b correspond to cells cultured in media with Taxol.

MDA-MB-231-GFP cells = assay: Short-term adhesion of MDA-MB-231-GFP cells to peptides synthesized on Teflon-patterned paper arrays; format: cell-based; settings: for binding of cells to peptide-modified paper: confocal microscopy, FIG. 10b, 3 hours of incubation
Protocol: When immobilized on paper, 5 out of the 8 peptides synthesized supported adhesion of MDA-MB-231 breast carcinoma at levels similar to or higher than the positive control GRGDS. The other three peptides supported greater adhesion than the scrambled peptide, GGRDS.
The images represent short term adhesion of cells after 3 hours of incubation on the array.
In FIG. 14(a), a fluorescent gel scanner was used to validate adhesion of MDA-MB-231-GFP cells to phage-derived peptides on peptide-arrays. […] FIG. 14(c) illustrates digitization of the number of cells per zone from fluorescent gel scanner images of the 32 peptides. The (+) and (−) lines represent the intensity level of the positive and negative controls.
FIG. 18 illustrates a typical cell-binding experiment on a half array (40 peptides identified from two panning experiments, and 8 controls). […] FIG. 18c consists of the zones of interest for each peptide extracted from FIG. 18a, and organized by peptides. The average intensity of fluorescence for each peptide zone is then converted into a number of cells per zone through a calibration curve previously established for these cells (FIG. 18d). FIG. 18e is the resulting plot with standard deviation over the four replicates.

Compound | cell morphology [1] | binding of cells to peptide-modified paper (MDA-MB-231-GFP cells) | adhesion of MDA-MB-231 breast carcinoma cells to peptide immobilized on paper (MDA-MB-231-GFP cells; fluorescent gel scanner (GFP fluorescence), 3 hours of incubation on the array, known bioactive peptides, FIG. 10a)
CC(=O)O[C@H]1C(=O)[C@@]2(C)[C@H]([C@H](OC(=O)c3ccccc3)[C@]3(O)C[C@H](OC(=O)[C@H](O)[C@@H](NC(=O)c4ccccc4)c4ccccc4)C(C)=C1C3(C)C)[C@]1(OC(C)=O)CO[C@@H]1C[C@@H]2O [Taxol, paclitaxel] | isolated, rounded cells | – | –
GGRDS (peptide identified by phage display panning on MDA-MB-231 cells) [scrambled peptide, negative control] | – | no binding | minimal binding
GRGDS (peptide identified by phage display panning on MDA-MB-231 cells) | – | binding | –
